Test results as given in patent US20250230193A1, “CYCLIC COMPOUND HAVING SELECTIVE KRAS INHIBITORY EFFECT ON HRAS AND NRAS” (CHUGAI SEIYAKU KABUSHIKI KAISHA, priority 2022, published 2025).

Columns and labels:
[1] = target: GDP-bound HRAS wild-type protein (Homo sapiens, UniProt P01112); experiment: Binding to HRAS by surface plasmon resonance (SPR), Single Cycle Kinetics; conditions: KD ratio HRAS/KRAS, SPR
[2] = target: GDP-bound NRAS wild-type protein (Homo sapiens, UniProt P01111); experiment: Binding to NRAS by surface plasmon resonance (SPR), Single Cycle Kinetics; conditions: KD ratio NRAS/KRAS, SPR
Sequence of GDP-bound NRAS wild-type protein (P01111 whole entry): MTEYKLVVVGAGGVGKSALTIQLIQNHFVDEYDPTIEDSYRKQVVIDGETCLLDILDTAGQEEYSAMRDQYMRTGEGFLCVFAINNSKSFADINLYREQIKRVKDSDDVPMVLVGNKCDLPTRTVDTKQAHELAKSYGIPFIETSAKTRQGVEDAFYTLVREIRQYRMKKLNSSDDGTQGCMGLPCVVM

Sequence of GDP-bound HRAS wild-type protein (P01112 whole entry): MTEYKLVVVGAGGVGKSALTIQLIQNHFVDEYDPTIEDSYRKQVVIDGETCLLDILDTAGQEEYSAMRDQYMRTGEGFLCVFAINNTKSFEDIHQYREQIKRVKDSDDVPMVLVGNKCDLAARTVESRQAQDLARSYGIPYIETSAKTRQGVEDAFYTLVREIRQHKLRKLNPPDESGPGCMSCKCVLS

SMILES	HRAS/KRAS (ratio of KD value with respect to GDP-bound HRAS wild-type protein to KD value with respect to KRAS) [1]	NRAS/KRAS (ratio of KD value with respect to GDP-bound NRAS wild-type protein to KD value with respect to KRAS) [2]
CC[C@H](C)[C@@H]1NC(=O)[C@H](CC(C)C)N(C)C(=O)C[C@@H](C(=O)N2CCCC2)N(C)C(=O)[C@H](C2CCCC2)N(C)C(=O)C2(CCCC2)NC(=O)[C@@H]2CCCN2C(=O)[C@H](CCc2cc(F)c(C(F)(F)F)c(F)c2)NC(=O)CN(C)C(=O)[C@H](Cc2ccc(C(F)(F)F)cc2)N2CCCC[C@@H](C2=O)N(C)C(=O)CN(C)C1=O [PP0571]	B (a compound having 3 or more and less than 10 is denoted as B)	B (a compound having 3 or more and less than 10 is denoted as B)
CC[C@H](C)[C@@H]1NC(=O)[C@H](CC(C)C)N(C)C(=O)C[C@@H](C(=O)N2CCCCC2)N(C)C(=O)[C@H](C2CCCC2)N(C)C(=O)C2(CCCC2)NC(=O)[C@@H]2CCCN2C(=O)[C@H](CCc2cc(F)c(C(F)(F)F)c(F)c2)NC(=O)CN(C)C(=O)[C@H](Cc2ccc(C(F)(F)F)cc2)N2CCCC[C@@H](C2=O)N(C)C(=O)CN(C)C1=O [PP0572]	B (a compound having 3 or more and less than 10 is denoted as B)	B (a compound having 3 or more and less than 10 is denoted as B)
CC[C@H](C)[C@@H]1NC(=O)[C@H](CC(C)C)N(C)C(=O)C[C@@H](C(=O)N2C3CCC2COC3)N(C)C(=O)[C@H](C2CCCC2)N(C)C(=O)C2(CCCC2)NC(=O)[C@@H]2CCCN2C(=O)[C@H](CCc2cc(F)c(C(F)(F)F)c(F)c2)NC(=O)CN(C)C(=O)[C@H](Cc2ccc(C(F)(F)F)cc2)N2CCCC[C@@H](C2=O)N(C)C(=O)CN(C)C1=O [PP0573]	B (a compound having 3 or more and less than 10 is denoted as B)	B (a compound having 3 or more and less than 10 is denoted as B)
CC[C@H](C)[C@@H]1NC(=O)[C@H](CC(C)C)N(C)C(=O)C[C@@H](C(=O)N(C)C)N(C)C(=O)[C@H](C2CCCC2)N(C)C(=O)C2(CCC2)NC(=O)[C@@H]2CCCN2C(=O)[C@H](CCc2cc(F)c(C(F)(F)F)c(F)c2)NC(=O)CN(C)C(=O)[C@H](Cc2ccc(C(F)(F)F)cc2)N2CCCC[C@@H](C2=O)N(C)C(=O)CN(C)C1=O [PP0574]	B (a compound having 3 or more and less than 10 is denoted as B)	C (A compound having a KD ratio of 0.1 or more and less than 3 is denoted as C)
CC[C@H](C)[C@@H]1NC(=O)[C@H](CC(C)C)N(C)C(=O)C[C@@H](C(=O)N2CCOCC2)N(C)C(=O)[C@H](C2CCCC2)N(C)C(=O)C2(CCC2)NC(=O)[C@@H]2CC(F)(F)CN2C(=O)[C@H](CCc2cc(F)c(C(F)(F)F)c(F)c2)NC(=O)CN(C)C(=O)[C@H](Cc2ccc(C(F)(F)F)cc2)N2CCCC[C@@H](C2=O)N(C)C(=O)CN(C)C1=O [PP0575]	B (a compound having 3 or more and less than 10 is denoted as B)	B (a compound having 3 or more and less than 10 is denoted as B)
CC[C@H](C)[C@@H]1NC(=O)[C@H](CC(C)C)N(C)C(=O)C[C@@H](C(=O)N(C)C)N(C)C(=O)[C@H](C2CCCC2)N(C)C(=O)C2(CCCC2)NC(=O)[C@@H]2CC(F)(F)CN2C(=O)[C@H](CCc2cc(F)c(C(F)(F)F)c(F)c2)NC(=O)CN(C)C(=O)[C@H](Cc2ccc(C(F)(F)F)cc2)N2CCCC[C@@H](C2=O)N(C)C(=O)CN(C)C1=O [PP0576]	B (a compound having 3 or more and less than 10 is denoted as B)	C (A compound having a KD ratio of 0.1 or more and less than 3 is denoted as C)
CC[C@H](C)[C@@H]1NC(=O)[C@H](CC(C)C)N(C)C(=O)C[C@@H](C(=O)N(C)C)N(C)C(=O)[C@H](C2CCCC2)N(C)C(=O)C2(CCC2)NC(=O)[C@@H]2CC(F)(F)CN2C(=O)[C@H](CCc2cc(F)c(C(F)(F)F)c(F)c2)NC(=O)CN(C)C(=O)[C@H](Cc2ccc(C(F)(F)F)cc2)N2CCCC[C@@H](C2=O)N(C)C(=O)CN(C)C1=O [PP0577]	C (A compound having a KD ratio of 0.1 or more and less than 3 is denoted as C)	C (A compound having a KD ratio of 0.1 or more and less than 3 is denoted as C)
CCO[C@@H]1C[C@H]2C(=O)NC3(CCC3)C(=O)N(C)[C@@H](C3CCCC3)C(=O)N(C)[C@H](C(=O)N3CCOCC3)CC(=O)N(C)[C@@H](CC(C)C)C(=O)N[C@@H]([C@@H](C)CC)C(=O)N(C)CC(=O)N(C)[C@H]3CCCCN(C3=O)[C@@H](Cc3ccc(C(F)(F)F)cc3)C(=O)N(C)CC(=O)N[C@@H](CCc3cc(F)c(C(F)(F)F)c(F)c3)C(=O)N2C1 [PP0578]	B (a compound having 3 or more and less than 10 is denoted as B)	B (a compound having 3 or more and less than 10 is denoted as B)
CCO[C@@H]1C[C@H]2C(=O)NC3(CCCC3)C(=O)N(C)[C@@H](C3CCCC3)C(=O)N(C)[C@H](C(=O)N(C)C)CC(=O)N(C)[C@@H](CC(C)C)C(=O)N[C@@H]([C@@H](C)CC)C(=O)N(C)CC(=O)N(C)[C@H]3CCCCN(C3=O)[C@@H](Cc3ccc(C(F)(F)F)cc3)C(=O)N(C)CC(=O)N[C@@H](CCc3cc(F)c(C(F)(F)F)c(F)c3)C(=O)N2C1 [PP0579]	B (a compound having 3 or more and less than 10 is denoted as B)	C (A compound having a KD ratio of 0.1 or more and less than 3 is denoted as C)
CCO[C@@H]1C[C@H]2C(=O)NC3(CCC3)C(=O)N(C)[C@@H](C3CCCC3)C(=O)N(C)[C@H](C(=O)N(C)C)CC(=O)N(C)[C@@H](CC(C)C)C(=O)N[C@@H]([C@@H](C)CC)C(=O)N(C)CC(=O)N(C)[C@H]3CCCCN(C3=O)[C@@H](Cc3ccc(C(F)(F)F)cc3)C(=O)N(C)CC(=O)N[C@@H](CCc3cc(F)c(C(F)(F)F)c(F)c3)C(=O)N2C1 [PP0580]	C (A compound having a KD ratio of 0.1 or more and less than 3 is denoted as C)	C (A compound having a KD ratio of 0.1 or more and less than 3 is denoted as C)
CC[C@H](C)[C@@H]1NC(=O)[C@H](C)N(C)C(=O)C[C@@H](C(=O)N(C)C)N(C)C(=O)[C@H](C2CCCC2)N(C)C(=O)C2(CCC2)NC(=O)[C@@H]2CCCN2C(=O)[C@H](CCc2cc(F)c(C(F)(F)F)c(F)c2)NC(=O)CN(C)C(=O)[C@H](Cc2ccc(C(F)(F)F)cc2)N2CCCC[C@@H](C2=O)N(C)C(=O)CN(C)C1=O [PP0581]	B (a compound having 3 or more and less than 10 is denoted as B)	C (A compound having a KD ratio of 0.1 or more and less than 3 is denoted as C)
CC[C@H](C)[C@@H]1NC(=O)[C@H](C)N(C)C(=O)C[C@@H](C(=O)N2CCOCC2)N(C)C(=O)[C@H](C2CCCC2)N(C)C(=O)C2(CCC2)NC(=O)[C@@H]2CC(F)(F)CN2C(=O)[C@H](CCc2cc(F)c(C(F)(F)F)c(F)c2)NC(=O)CN(C)C(=O)[C@H](Cc2ccc(C(F)(F)F)cc2)N2CCCC[C@@H](C2=O)N(C)C(=O)CN(C)C1=O [PP0582]	B (a compound having 3 or more and less than 10 is denoted as B)	C (A compound having a KD ratio of 0.1 or more and less than 3 is denoted as C)
CC[C@H](C)[C@@H]1NC(=O)[C@H](C)N(C)C(=O)C[C@@H](C(=O)N(C)C)N(C)C(=O)[C@H](C2CCCC2)N(C)C(=O)C2(CCCC2)NC(=O)[C@@H]2CC(F)(F)CN2C(=O)[C@H](CCc2cc(F)c(C(F)(F)F)c(F)c2)NC(=O)CN(C)C(=O)[C@H](Cc2ccc(C(F)(F)F)cc2)N2CCCC[C@@H](C2=O)N(C)C(=O)CN(C)C1=O [PP0583]	C (A compound having a KD ratio of 0.1 or more and less than 3 is denoted as C)	C (A compound having a KD ratio of 0.1 or more and less than 3 is denoted as C)
CC[C@H](C)[C@@H]1NC(=O)[C@H](C)N(C)C(=O)C[C@@H](C(=O)N(C)C)N(C)C(=O)[C@H](C2CCCC2)N(C)C(=O)C2(CCC2)NC(=O)[C@@H]2CC(F)(F)CN2C(=O)[C@H](CCc2cc(F)c(C(F)(F)F)c(F)c2)NC(=O)CN(C)C(=O)[C@H](Cc2ccc(C(F)(F)F)cc2)N2CCCC[C@@H](C2=O)N(C)C(=O)CN(C)C1=O [PP0584]	C (A compound having a KD ratio of 0.1 or more and less than 3 is denoted as C)	C (A compound having a KD ratio of 0.1 or more and less than 3 is denoted as C)
CCO[C@@H]1C[C@H]2C(=O)NC3(CCC3)C(=O)N(C)[C@@H](C3CCCC3)C(=O)N(C)[C@H](C(=O)N3CCOCC3)CC(=O)N(C)[C@@H](C)C(=O)N[C@@H]([C@@H](C)CC)C(=O)N(C)CC(=O)N(C)[C@H]3CCCCN(C3=O)[C@@H](Cc3ccc(C(F)(F)F)cc3)C(=O)N(C)CC(=O)N[C@@H](CCc3cc(F)c(C(F)(F)F)c(F)c3)C(=O)N2C1 [PP0585]	B (a compound having 3 or more and less than 10 is denoted as B)	B (a compound having 3 or more and less than 10 is denoted as B)
